Reference: ChEMBL document CHEMBL1201862, “PubChem BioAssay data set” (2004)
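Where inhibition never reached the appropriate level, the endpoint shown equals the highest concentration tested. Otherwise, values were interpolated linearly from a five-concentration, 48-hour dose response in 96-well plates. GI50 marks 50% less growth.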 Activity calls are given as the source filed them. No stated cut-off is given here; in the data, active = GI50 up to about 1.1 µM and inactive = higher.

Columns and labels:
Experiment in all cases: NCI anticancer screen, dose series, 48 h
[1] = system: 786-0
[2] = system: A498
[3] = system: A549
[4] = system: ACHN
[5] = system: CCRF-CEM
[6] = system: COLO 205
[7] = system: EKVX
[8] = system: HCC 2998
[9] = system: HCT-116
[10] = system: HCT-15
[11] = system: HOP-62
[12] = system: HOP-92
[13] = system: HT-29
[14] = system: Hs-578T
[15] = system: IGROV-1
[16] = system: KM12
[17] = system: LOX IMVI
[18] = system: M14
[19] = system: MCF7
[20] = system: MDA-MB-231
[21] = system: MDA-MB-435
[22] = system: MDA-N
[23] = system: MOLT-4
[24] = system: Malme-3M
[25] = system: NCI-H226
[26] = system: NCI-H23
[27] = system: NCI-H522
[28] = system: NCI/ADR-RES
[29] = system: OVCAR-3
[30] = system: OVCAR-4
[31] = system: OVCAR-5
[32] = system: OVCAR-8
[33] = system: PC-3
[34] = system: RPMI-8226
[35] = system: RXF 393
[36] = system: SF-295
[37] = system: SF-539
[38] = system: SK-MEL-2
[39] = system: SK-MEL-5
[40] = system: SK-OV-3
[41] = system: SN12C
[42] = system: T47D
[43] = system: TK-10
[44] = system: U-251
[45] = system: UACC-257
[46] = system: UACC-62
[47] = system: UO-31
[48] = system: CAKI-1
[49] = system: DU-145
[50] = system: HL-60
[51] = system: K562
[52] = system: NCI-H460
[53] = system: SF-268
[54] = system: SK-MEL-28
[55] = system: SNB-19
[56] = system: SNB-75
[57] = system: SR
[58] = system: SW-620

COC(=O)CCCc1ccc2c(c1)CC1(Cc3ccccc3C1)C2
GI50 [1]: > 100 µM (inactive) | GI50 [2]: 59.2 µM (inactive) | GI50 [3]: 58.9 µM (inactive) | GI50 [4]: 75.3 µM (inactive) | GI50 [5]: 29.6 µM (inactive) | GI50 [6]: 26.3 µM (inactive) | GI50 [7]: > 100 µM (inactive) | GI50 [8]: 70.1 µM (inactive) | GI50 [9]: 26 µM (inactive) | GI50 [10]: 6.28 µM | GI50 [11]: > 100 µM (inactive) | GI50 [12]: > 100 µM (inactive) | GI50 [13]: 31 µM (inactive) | GI50 [14]: > 100 µM (inactive) | GI50 [15]: > 100 µM (inactive) | GI50 [16]: > 100 µM (inactive) | GI50 [17]: 40.3 µM (inactive) | GI50 [18]: 44.4 µM (inactive) | GI50 [19]: 53.6 µM (inactive) | GI50 [20]: > 100 µM (inactive) | GI50 [21]: 20.6 µM (inactive) | GI50 [22]: 23.2 µM (inactive) | GI50 [23]: 0.333 µM (active) | GI50 [24]: 87.1 µM (inactive) | GI50 [25]: > 100 µM (inactive) | GI50 [26]: 46.3 µM (inactive) | GI50 [27]: 47.6 µM (inactive) | GI50 [28]: 80 µM (inactive) | GI50 [29]: 62.2 µM (inactive) | GI50 [30]: 63 µM (inactive) | GI50 [31]: > 100 µM (inactive) | GI50 [32]: 70.1 µM (inactive) | GI50 [33]: 41.1 µM (inactive) | GI50 [34]: 28.4 µM (inactive) | GI50 [35]: 77.1 µM (inactive) | GI50 [36]: > 100 µM (inactive) | GI50 [37]: > 100 µM (inactive) | GI50 [38]: 19.5 µM (inactive) | GI50 [39]: 20.1 µM (inactive) | GI50 [40]: > 100 µM (inactive) | GI50 [41]: 88.5 µM (inactive) | GI50 [42]: > 100 µM (inactive) | GI50 [43]: > 100 µM (inactive) | GI50 [44]: > 100 µM (inactive) | GI50 [45]: 32.2 µM (inactive) | GI50 [46]: > 100 µM (inactive) | GI50 [47]: 86.1 µM (inactive)

CN(C1=NCCO1)c1cccc2ccccc12
GI50 [2]: > 10 µM (inactive) | GI50 [3]: > 10 µM (inactive) | GI50 [4]: > 10 µM (inactive) | GI50 [48]: > 10 µM (inactive) | GI50 [5]: > 10 µM (inactive) | GI50 [6]: > 10 µM (inactive) | GI50 [49]: > 10 µM (inactive) | GI50 [7]: > 10 µM (inactive) | GI50 [8]: > 10 µM (inactive) | GI50 [9]: > 10 µM (inactive) | GI50 [10]: > 10 µM | GI50 [50]: > 10 µM (inactive) | GI50 [11]: > 10 µM (inactive) | GI50 [13]: > 10 µM (inactive) | GI50 [14]: > 10 µM (inactive) | GI50 [15]: > 10 µM (inactive) | GI50 [51]: > 10 µM (inactive) | GI50 [16]: > 10 µM (inactive) | GI50 [17]: > 10 µM (inactive) | GI50 [18]: > 10 µM (inactive) | GI50 [19]: > 10 µM (inactive) | GI50 [20]: > 10 µM (inactive) | GI50 [21]: > 10 µM (inactive) | GI50 [22]: > 10 µM (inactive) | GI50 [23]: > 10 µM (inactive) | GI50 [24]: > 10 µM (inactive) | GI50 [25]: > 10 µM (inactive) | GI50 [26]: > 10 µM (inactive) | GI50 [52]: > 10 µM (inactive) | GI50 [27]: > 10 µM (inactive) | GI50 [28]: > 10 µM (inactive) | GI50 [29]: > 10 µM (inactive) | GI50 [30]: > 10 µM (inactive) | GI50 [31]: > 10 µM (inactive) | GI50 [32]: > 10 µM (inactive) | GI50 [33]: > 10 µM (inactive) | GI50 [34]: > 10 µM (inactive) | GI50 [35]: > 10 µM (inactive) | GI50 [53]: > 10 µM (inactive) | GI50 [36]: > 10 µM (inactive) | GI50 [37]: > 10 µM (inactive) | GI50 [54]: > 10 µM (inactive) | GI50 [38]: > 10 µM (inactive) | GI50 [39]: > 10 µM (inactive) | GI50 [40]: > 10 µM (inactive) | GI50 [41]: > 10 µM (inactive) | GI50 [55]: > 10 µM (inactive) | GI50 [56]: 9.29 µM (inactive) | GI50 [57]: > 10 µM (inactive) | GI50 [58]: > 10 µM (inactive) | GI50 [42]: > 10 µM (inactive) | GI50 [43]: > 10 µM (inactive) | GI50 [44]: > 10 µM (inactive) | GI50 [46]: > 10 µM (inactive) | GI50 [47]: > 10 µM (inactive)
